Data taken from the NIST ThermoML archive (doi:10.1021/je060271a).

Conditions: 343.15 K, Liquid, Vibrating tube method

CCCC(=O)OCC(COC(=O)CCC)(COC(=O)CCC)COC(=O)CCC [pentaerythritol tetrabutyrate]
Conditions	mass density [kg/m3]
20390 kPa	1023.3
20430 kPa	1023.3
20478 kPa	1023.4
20526 kPa	1023.4
20575 kPa	1023.5
20625 kPa	1023.5
20668 kPa	1023.6
20718 kPa	1023.5
20770 kPa	1023.6
20824 kPa	1023.8
20870 kPa	1023.6
20921 kPa	1023.6
20960 kPa	1023.7
20996 kPa	1023.8
21033 kPa	1023.8
21064 kPa	1023.8
21100 kPa	1023.9
21137 kPa	1023.9
21173 kPa	1023.9
21204 kPa	1023.9
21241 kPa	1024
21279 kPa	1024
21316 kPa	1024.1
21354 kPa	1024.1
21386 kPa	1024.2
21424 kPa	1024.1
21463 kPa	1024.1
21495 kPa	1024.1
21534 kPa	1024.1
21572 kPa	1024.2
21612 kPa	1024.2
21645 kPa	1024.2
21684 kPa	1024.3
21723 kPa	1024.3
21763 kPa	1024.3
21802 kPa	1024.2
21835 kPa	1024.3
21876 kPa	1024.4
21916 kPa	1024.4
21956 kPa	1024.4
21990 kPa	1024.5
22030 kPa	1024.5
22071 kPa	1024.4
22112 kPa	1024.5
22146 kPa	1024.5
22187 kPa	1024.5
22220 kPa	1024.6
22268 kPa	1024.5
22310 kPa	1024.7
22344 kPa	1024.7
22387 kPa	1024.8
22429 kPa	1024.7
22472 kPa	1024.8
22507 kPa	1024.8
22548 kPa	1024.8
22591 kPa	1024.7
22634 kPa	1024.9
22670 kPa	1024.9
22714 kPa	1025
22756 kPa	1025
22799 kPa	1024.9
22842 kPa	1025
22886 kPa	1024.9
22970 kPa	1025.2
23014 kPa	1025.2
23052 kPa	1025.2
23097 kPa	1025.2
23142 kPa	1025.2
23180 kPa	1025.2
23226 kPa	1025.3
23270 kPa	1025.4
23317 kPa	1025.4
23355 kPa	1025.3
23400 kPa	1025.4
23447 kPa	1025.5
23494 kPa	1025.6
23535 kPa	1025.4
23582 kPa	1025.6
23630 kPa	1025.6
23676 kPa	1025.6
23716 kPa	1025.7
23763 kPa	1025.7
24094 kPa	1025.8
24137 kPa	1026
24186 kPa	1026
24236 kPa	1025.8
24278 kPa	1026.1
24328 kPa	1026
24379 kPa	1026
24431 kPa	1026.1
24484 kPa	1026.1
24528 kPa	1026.2
24578 kPa	1026.2
24621 kPa	1026.3
24665 kPa	1026.2
24708 kPa	1026.3
24745 kPa	1026.3
24788 kPa	1026.3
24833 kPa	1026.2
24870 kPa	1026.4
24915 kPa	1026.4
24959 kPa	1026.4
25004 kPa	1026.4
25049 kPa	1026.5
25086 kPa	1026.6
25132 kPa	1026.5
25176 kPa	1026.6
25223 kPa	1026.7
25270 kPa	1026.7
25308 kPa	1026.7
25354 kPa	1026.8
25401 kPa	1026.7
25439 kPa	1026.8
25486 kPa	1026.9
25532 kPa	1026.7
25579 kPa	1026.8
25625 kPa	1026.9
25665 kPa	1027
26228 kPa	1027.4
26277 kPa	1027.4
26328 kPa	1027.3
26378 kPa	1027.4
26422 kPa	1027.5
26476 kPa	1027.5
26521 kPa	1027.6
26574 kPa	1027.5
26957 kPa	1027.8
27040 kPa	1027.8
27084 kPa	1027.9
27121 kPa	1027.9
27166 kPa	1028
27211 kPa	1027.9
27248 kPa	1027.9
27293 kPa	1028
27331 kPa	1028.1
27416 kPa	1028.1
27462 kPa	1028.2
27508 kPa	1028.2
27548 kPa	1028.2
27598 kPa	1028.2
27639 kPa	1028.3
27688 kPa	1028.2
27761 kPa	1028.4
27799 kPa	1028.6
27832 kPa	1028.3
27872 kPa	1028.4
